Results as given in paper PMC11822664, “First‐In‐Human Dose Finding Study of Venadaparib (IDX‐1197), a Potent and Selective PARP Inhibitor, in Patients With Advanced Solid Tumors” (Cancer Medicine, 2025).

Assay: Plasma pharmacokinetics, noncompartmental analysis (Day 1 and Day 14)
Format: in vivo, human
Conditions: for AUCinf / AUClast / Cmax / T1/2β / Vz / AUCinf,ss / AUClast,ss / Cmax,ss / Vd,ss: mean±SD
Method: Pharmacokinetic and pharmacodynamic studies were performed during the first cycle of treatment. Plasma samples were analyzed for venadaparib concentration using liquid‐liquid extraction followed by high‐performance liquid chromatography, with detection by mass spectrometry. The plasma concentration–time data were analyzed using noncompartmental analysis (WinNonLin, version 8.0, SAS version 9.4 and R version 3.6.3) to derive pharmacokinetic parameters after the first dose (single‐dose parameters) and after the dose on Day 14 (multiple‐dose parameters). Pharmacodynamic studies were performed by evaluating Poly (ADP‐ribose) in peripheral blood mononuclear cells and quantifying tumor‐tissue lysates using the HT PARP in vivo Pharmacodynamic ELISA Kit II (R&D Systems, 4520‐096‐K).

[1] = day 1, Cohort 1: 2 mg once daily, 2 weeks on 1 week off, n=3
[2] = day 1, Cohort 2: 5 mg once daily, 2 weeks on 1 week off, n=3
[3] = day 1, Cohort 3: 10 mg once daily, 2 weeks on 1 week off, n=3
[4] = day 1, Cohort 4: 20 mg once daily, 2 weeks on 1 week off, n=3
[5] = day 1, Cohort 5: 20 mg once daily continuously, n=3
[6] = day 1, Cohort 6: 40 mg once daily continuously, n=3
[7] = day 1, Cohort 7: 80 mg once daily continuously, n=3
[8] = day 1, Cohort 8: 120 mg once daily continuously, n=3
[9] = day 1, Cohort 9: 160 mg once daily continuously, n=4
[10] = day 1, Cohort 10: 240 mg once daily continuously, n=3
[11] = day 14, Cohort 1: 2 mg once daily, 2 weeks on 1 week off, n=3
[12] = day 14, Cohort 2: 5 mg once daily, 2 weeks on 1 week off, n=3

SMILES: O=C(c1cc(Cc2n[nH]c(=O)c3ccccc23)ccc1F)N1CC(CNC2CC2)C1 [venadaparib, Venadaparib]
- average increase in drug exposure (after 14 days of daily administration): 99%
- Time to steady state (after initiation of daily dosing): approximately 2 weeks
- AUCinf [1]: 780.62±401.58 (51.4%) [318.42-043.92] h*ug/L
- AUClast [1]: 593.00±274.64 (46.3%) [291.48-828.86] h*ug/L
- Cmax [1]: 84.50±54.00 (63.9%) [33.40-141.00] ng/mL
- T1/2β [1]: 11.64±4.54 (39.0%) [6.72-15.66] h
- Vz [1]: 47.20±13.15 (27.8%) [34.62-60.85] L
- Tmax (day 1, Cohort 1: 2 mg once daily, 2 weeks on 1 week off, n=3, median (min-max)): 1.92 (1.03-1.97) h
- AUCinf [2]: 1827.86±1666.87 (84.7%) [33.40-141.00] h*ug/L
- AUClast [2]: 1340.46±1006.85 (84.7%) [33.40-141.00] h*ug/L
- Cmax [2]: 180.00±48.57 (27.0%) [133.00-230.00] ng/mL
- T1/2β [2]: 10.52±3.54 (33.7%) [6.97-14.06] h
- Vz [2]: 57.08±26.96 (84.7%) [33.40-141.00] L
- Tmax (day 1, Cohort 2: 5 mg once daily, 2 weeks on 1 week off, n=3, median (min-max)): 3.00 (0.55-4.00) h
- AUCinf [3]: 3649.06±4836.80 (132.5%) [144.88-9167.47] h*ug/L
- AUClast [3]: 2519.97±3026.42 (120.1%) [127.22-5922.09] h*ug/L
- Cmax [3]: 204.17±173.02 (84.7%) [33.40-141.00] ng/mL
- T1/2β [3]: 9.94±3.14 (31.6%) [7.23-13.39] h
- Vz [3]: 333.81±505.10 (151.3%) [21.07-916.53] L
- Tmax (day 1, Cohort 3: 10 mg once daily, 2 weeks on 1 week off, n=3, median (min-max)): 3.00 (2.00-8.02) h
- AUCinf [4]: 3039.02±674.82 (22.2%) [2368.04-3717.62] h*ug/L
- AUClast [4]: 2754.42±727.50 (26.4%) [1991.23-3440.00] h*ug/L
- Cmax [4]: 380.00±146.81 (38.6%) [228.00-521.00] ng/mL
- T1/2β [4]: 7.91±2.11 (26.7%) [6.25-10.28] h
- Vz [4]: 80.18±39.12 (48.8%) [55.73-125.29] L
- Tmax (day 1, Cohort 4: 20 mg once daily, 2 weeks on 1 week off, n=3, median (min-max)): 3.00 (2.08-4.00) h
- AUCinf [5]: 12875.06±5816.24 (45.5%) [7832.01-19189.58] h*ug/L
- AUClast [5]: 10232.09±3651.74 (35.7%) [7292.97-14320.11] h*ug/L
- Cmax [5]: 1128.00±443.52 (39.3%) [862.00-1640.00] ng/mL
- T1/2β [5]: 9.98±3.76 (37.7%) [5.82-13.13] h
- Vz [5]: 23.05±4.34 (18.8%) [19.75-27.97] L
- Tmax (day 1, Cohort 5: 20 mg once daily continuously, n=3, median (min-max)): 2.93 (0.50-3.00) h
- AUCinf [6]: 15825.90±13925.93 (88.0%) [7229.41-31893.03] h*ug/L
- AUClast [6]: 14369.29±12181.96 (84.8%) [6801.11-28421.88] h*ug/L
- Cmax [6]: 2043.33±1547.82 (75.7%) [1110.00-3830.00] ng/mL
- T1/2β [6]: 6.87±0.36 (5.3%) [6.64-7.29] h
- Vz [6]: 37.48±21.36 (57.0%) [13.19-53.37] L
- Tmax (day 1, Cohort 6: 40 mg once daily continuously, n=3, median (min-max)): 2.00 (2.00-3.00) h
- AUCinf [7]: 31699.75±12751.32 (40.2%) [17104.01-40676.73] h*ug/L
- AUClast [7]: 27733.70±10788.09 (38.9%) [15336.37-34987.13] h*ug/L
- Cmax [7]: 3643.33±582.27 (16.0%) [2980.00-4070.00] ng/mL
- T1/2β [7]: 8.29±0.47 (5.7%) [7.81-8.75] h
- Vz [7]: 35.61±20.31 (57.0%) [23.61-59.06] L
- Tmax (day 1, Cohort 7: 80 mg once daily continuously, n=3, median (min-max)): 1.03 (1.00-3.00) h
- AUCinf [8]: 28572.20±24412.45 (85.4%) [12537.00-56667.70] h*ug/L
- AUClast [8]: 23020.92±16230.34 (70.5%) [12129.81-41674.88] h*ug/L
- Cmax [8]: 2923.33±1179.25 (40.3%) [2030.00-4260.00] ng/mL
- T1/2β [8]: 8.56±4.44 (51.9%) [4.97-13.53] h
- Vz [8]: 61.75±17.99 (29.1%) [41.34-75.31] L
- Tmax (day 1, Cohort 8: 120 mg once daily continuously, n=3, median (min-max)): 2.00 (1.95-2.07) h
- AUCinf [9]: 48298.24±7488.56 (15.5%) [39493.27-55858.21] h*ug/L
- AUClast [9]: 42174.71±5663.76 (13.4%) [35508.61-48321.59] h*ug/L
- Cmax [9]: 5295.00±628.68 (11.9%) [4820.00-6220.00] ng/mL
- T1/2β [9]: 8.15±1.31 (16.1%) [6.18-8.88] h
- Vz [9]: 39.02±4.02 (10.3%) [36.11-44.88] L
- Tmax (day 1, Cohort 9: 160 mg once daily continuously, n=4, median (min-max)): 2.00 (1.00-3.00) h
- AUCinf [10]: 37514.17±11745.33 (31.3%) [23968.05-44861.59] h*ug/L
- AUClast [10]: 35064.82±10936.96 (31.2%) [22440.89-41684.26] h*ug/L
- Cmax [10]: 4243.33±1097.38 (25.9%) [2980.00-4960.00] ng/mL
- T1/2β [10]: 5.86±0.27 (4.5%) [5.63-6.15] h
- Vz [10]: 58.25±20.01 (34.4%) [45.93-81.34] L
- Tmax (day 1, Cohort 10: 240 mg once daily continuously, n=3, median (min-max)): 2.03 (1.95-3.87) h
- AUCinf,ss [11]: 1736.03±1605.80 (92.5%) [457.71-3538.38] h*ug/L
- AUClast,ss [11]: 1364.99±1236.83 (90.6%) [418.50-2764.45] h*ug/L
- Cmax,ss [11]: 164.83±158.82 (96.4%) [55.40-347.00] ng/mL
- T1/2β [11]: 10.12±3.11 (30.8%) [6.53-12.16] h
- Vd,ss [11]: 26.55±15.98 (60.2%) [9.51-41.19] L
- Tmax,ss (day 14, Cohort 1: 2 mg once daily, 2 weeks on 1 week off, n=3, median (min-max)): 1.95 (0.50-3.00) h
- AUCinf,ss [12]: 3471.41±2661.23 (76.7%) [854.73-6175.06] h*ug/L
- AUClast,ss [12]: 2104.75±1410.01 (67.0%) [709.76-3529.30] h*ug/L
- Cmax,ss [12]: 274.27±162.91 (59.4%) [90.80-402.00] ng/mL
- T1/2β [12]: 17.56±7.23 (41.1%) [9.22-21.87] h
- Vd,ss [12]: 49.88±26.44 (53.0%) [25.23-77.80] L
